Source: ChEMBL document CHEMBL1136107, “Improvement of therapeutic index of phosphodiesterase type IV inhibitors as anti-Asthmatics” (Bioorg Med Chem Lett, 2003)
The source made the active and inactive calls.

Experiments:
Cavia porcellus [1] = test: Eosinophil infiltration in passively-sensitized guinea pig at 30 mg/kg peroral dose 90 min prior to challenge; format: functional; details: route oral
Mustela putorius furo = test: Emetic effect in ferrets after peroral administration at 0.03 mg/kg (2/5); format: functional, organism-based; set-up: dose 0.03 mg/kg
Cavia porcellus [2] = test: Inhibition of bronchoconstriction in passively-sensitized guinea pig at 1 mg/kg iv dose 10 min prior to challenge; format: functional; details: Lung

SMILES | inhibition in vivo at 30 mg/kg (Cavia porcellus [1]) [%] | Emesis (Mustela putorius furo) | inhibition in vivo at 1 mg/kg (Cavia porcellus [2]) [%]
COc1ccc(C2CNC(=O)C2)cc1OC1CCCC1 (stereo not given) [ROLIPRAM] | 62 | Partially active | 95.4
COc1ccc(/C=N/NC(N)=O)cc1OC1CCCC1 | 63 | – | 90.3
